Measured values from patent US20250171400A1, “AZA-HETEROCYCLYL CARBOXAMIDE AND RELATED COMPOUNDS AND THEIR USE IN TREATING MEDICAL CONDITIONS” (X-BIOTIX THERAPEUTICS, INC., priority 2021, published 2025).
≈ marks a conversion by molar mass, not a printed value. Read-outs that look alike come from different tables or passages of the source.

Key:
[1] = molecular target: P. aeruginosa LpxC (Pseudomonas aeruginosa (strain ATCC 15692 / DSM 22644 / CIP 104116 / JCM 14847 / LMG 12228 / 1C / PRS 101 / PAO1), UniProt P47205); assay: biochemical; type: biochemical; conditions: 5 nM P. aeruginosa LpxC, 2.5 μM substrate, 1 hour at room temperature
Description: (§1) Exemplary compounds from the above Examples were tested for ability to inhibit LpxC activity using an in vitro substrate deacetylation assay with ADDA™ analysis. Assay procedures and results are described below.
(§2) For ADDA™ analysis, an aliquot of assay sample was withdrawn from each well of the 384-well plate and applied to a Hypercarb cartridge (Optimize Technologies, USA) under conditions designed to retain analytes of interest. Analytes were eluted using 1:1:2 acetone:acetonitrile:water containing 5 mM ammonium acetate then analysed by triple-quadrupole mass spectrometry. Mass spectrometry was carried out using electrospray ionization in negative ion mode.
For IC50 determinations, peak areas of the substrate and product were compared to compute the proportion of substrate reacted by the LpxC enzyme at each compound concentration.

[2] = system: P. aeruginosa PAO1 isogenic mutant deficient in MexA mediated efflux; assay: broth microdilution minimum inhibition concentration assay; type: cell-based; conditions: Pseudomonas aeruginosa, PAO1, read-out: P. aeruginosa KO MIC
Description: (§3) Exemplary compounds from the above Examples were tested to determine their minimum inhibitory concentration (MIC) for exemplary strains of Eschericia and Pseudomonas bacteria using broth microdilution methods. Assay procedures and results are described below.
(§4) Broth microdilution assays were conducted according to Clinical and Laboratory Standards Institute guidelines (CLSI, M07-A11: Clinical and Laboratory Standards Institute. Methods for Dilution Antimicrobial Susceptibility Tests for Bacteria that Grow Aerobically; Approved Standard—11th Edition. Wayne, PA: CLSI, 2018.). Briefly, a 0.5 McFarland standard suspension was made from bacterial isolates on non-selective, solid media. The inocula were adjusted to give a bacterial concentration of 1×10^6 CFU/mL. Serial doubling-dilutions of each compound were prepared in cation-adjusted Mueller-Hinton broth (Sigma-Aldrich) in 96-well microdilution plates. A 50 μL aliquot of the inoculum was added to each microdilution plate and, within 15 minutes, incubated at 37° C. in air for 16-20 h. […] The test was controlled by the determination of piperacillin MIC against both E. coli ATCC 25922 and P. aeruginosa ATCC 27853 and ensuring accordance with the ranges published in CLSI supplementary document M100 (CLSI, M100Ed29: Clinical and Laboratory Standards Institute. Performance Standards for Antimicrobial Susceptibility Testing, 29th Edition. Wayne, PA: CLSI, 2018.).
(§5) Multiple enterobacteriaceae strains were tested, including E. coli ATCC 25922 and K. pneumoniae ATCC 43816. WT E. coli BW25113 was tested with an isogenic mutant deficient in acrA mediated efflux by clean deletion. WT P. aeruginosa PAO1 was tested with an isogenic mutant deficient in MexA mediated efflux by clean deletion.
(§6) Experimental results are provided in Table 4, which provides MIC values for wild-type E. coli BW25113 (“E. coli WT MIC”), an isogenic mutant deficient in acrA mediated efflux by clean deletion (“E. coli KO MIC”), wild-type P. aeruginosa PAO1 (“P. aeruginosa WT MIC”), and an isogenic mutant deficient in MexA mediated efflux by clean deletion (“[…]”).

[3] = system: E. coli BW25113 isogenic mutant deficient in acrA mediated efflux; assay: as above; type: cell-based; conditions: Escherichia coli, BW25113, read-out: E. coli KO MIC
Description: as §3, §4, §5, §6

[4] = system: wild-type E. coli BW25113; assay: as above; type: cell-based; conditions: Escherichia coli; wild-type E. coli BW25113, 37° C. 16-20 h; read-out: E. coli WT MIC
Description: as §3, §4, §5, §6

[5] = system: wild-type P. aeruginosa PAO1; assay: as above; type: cell-based; conditions: Pseudomonas aeruginosa
Description: as §3, §4, §5, §6

[6] = molecular target: E. coli LpxC (Escherichia coli (strain K12), UniProt P0A725); assay: in vitro substrate deacetylation assay for inhibition of LpxC (ADDA analysis); type: biochemical; conditions: 5 nM E. coli LpxC, 2.5 μM substrate, 1 hour at room temperature
Sequence of E. coli LpxC (P0A725 whole entry): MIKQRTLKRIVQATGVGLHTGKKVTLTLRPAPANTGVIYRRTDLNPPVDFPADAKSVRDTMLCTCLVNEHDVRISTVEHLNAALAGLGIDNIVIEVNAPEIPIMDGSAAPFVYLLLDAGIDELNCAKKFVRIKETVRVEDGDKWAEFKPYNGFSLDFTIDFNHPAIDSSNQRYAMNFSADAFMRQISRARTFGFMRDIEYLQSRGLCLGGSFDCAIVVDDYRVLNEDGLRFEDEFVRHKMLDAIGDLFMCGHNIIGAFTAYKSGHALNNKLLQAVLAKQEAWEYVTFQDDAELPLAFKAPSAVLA
Description: as §1
Dilutions of test compound were pre-incubated with 5 nM P. aeruginosa or E. coli LpxC for 10 minutes at room temperature in 50 mM NaH2PO4, 500 mM sucrose, 0.2 mg/mL BSA, pH 7.2 and <1% DMSO. Reactions were initiated by the addition of 2× substrate (UDP-3-O—(R-3-hydroxydecanoyl)-N-acetylglucosamine, Carbosynth Ltd, UK, for P. aeruginosa LpxC and UDP-3-O—(R-3-hydroxymyristoyl)-N-acetylglucosamine, BOC Sciences, USA, for E. coli LpxC), in 50 mM NaH2PO4, 0.5 mg/mL BSA, pH 7.2, to a final concentration of 2.5 μM. Reactions proceeded for 1 hour at room temperature prior to quenching with and equal volume of 2% acetic acid.
as §2, with “mode. Daughter ion peaks representing detected substrate (P. aeruginosa: parent Q1 mass=775.8 amu, daughter Q3 mass=384.7 amu E. coli: parent Q1 mass=833.0 amu, daughter Q3 mass=385.0 amu, collision energy=analyte specific, dwell time=50 ms) were identified using a multiple-reaction monitoring protocol.” for “mode.”
Total activity (0% inhibition) was obtained from reactions containing no compound, and 100% inhibition is defined as reactions in the presence of 1 μM CHIR-090 (N-[(1S,2R)-2-hydroxy-1-[(hydroxyamino)carbonyl]propyl]-4-[2-[4-(4-morpholinylmethyl)phenyl]ethynyl]-benzamide). For IC50 determinations, peak areas of the substrate and product were compared to compute the proportion of substrate reacted by the LpxC enzyme at each compound concentration. The fractional activity was converted to percentage inhibition and plotted against compound concentration in ActivityBase™ and fit using a four-parameter logistic using non-linear regression to yield the IC50 value.

[7] = PAO1, read-out: P. aeruginosa WT MIC
[8] = wild-type P. aeruginosa PAO1, 37° C. 16-20 h, read-out: P. aeruginosa WT MIC

Structure (SMILES)	IC50 [1] [nM]	MIC [2] [µM]	MIC [3] [µM]	MIC [4] [µM]	MIC [5, 7] [µM]	IC50 [6] [nM]	MIC [5, 8] [µM]
CC(C)C(=O)N1C[C@H](NC(=O)[C@@H]2CC(F)(F)CN2)C[C@@H]1C(=O)NCc1ccc(C#Cc2ccc(CN3CCOCC3)cc2)cc1 [Example 9F]	50 to 100	20 to 100 (≈ 12.4 to 62.2 µg/mL)	20 to 100 (≈ 12.4 to 62.2 µg/mL)	> 100	> 100	500 to 2500	
Cc1cc(C#Cc2ccc(CN3CCOCC3)cc2)ccc1C(=O)NC[C@H]1C[C@@H](NC(=O)[C@@H]2C[C@H](F)CN2)CN1C(=O)C1CC1 [Example 7, (2S,4S)—N-((3R,5R)-1-(Cyclopropanecarbonyl)-5-((2-methyl-4-((4-(morpholinomethyl)phenyl)ethynyl)benzamido)methyl)pyrrolidin-3-yl)-4-fluoropyrrolidine-2-carboxamide]	50 to 100	< 20	< 20	< 20	> 100	< 500	
CC(C)C(=O)N1C[C@H](NC(=O)[C@@H]2C[C@H](F)CN2)C[C@@H]1C(=O)NCc1ccc(C#CC#CC2CC2)cc1 [Example 9B]	< 50	< 20	20 to 100 (≈ 9.85 to 49.3 µg/mL)	> 100	> 100	500 to 2500	
O=C(N[C@@H]1C[C@H](C(=O)NCc2ccc(C#Cc3ccc(CN4CCOCC4)cc3)cc2)N(C(=O)OC2CC2)C1)[C@@H]1C[C@H](F)CN1 [Example 9AW]	< 50	< 20	< 20	> 100		< 500	> 100
COCCN1C[C@H](NC(=O)[C@@H]2C[C@H](F)CN2)C[C@@H]1C(=O)NCc1ccc(C#CC#CC2CC2)cc1 [Example 9AM, (2R,4R)—N-(4-(Cyclopropylbuta-1,3-diyn-1-yl)benzyl)-4-((2S,4S)-4-fluoropyrrolidine-2-carboxamido)-1-(2-methoxyethyl)pyrrolidine-2-carboxamide]	100 to 1000	> 100	> 100	> 100	> 100	2500 to 10000	
CC(C)C(=O)N1C[C@H](NC(=O)[C@@H]2C[C@H](O)CN2)C[C@@H]1C(=O)NCc1ccc(C#Cc2ccc(CN3CCOCC3)cc2)cc1 [Example 9T, (2R,4R)-4-((2S,4S)-4-Hydroxypyrrolidine-2-carboxamido)-1-isobutyryl-N-(4-((4-(morpholinomethyl)phenyl)ethynyl)benzyl)pyrrolidine-2-carboxamide]	100 to 1000	> 100	> 100	> 100	> 100	2500 to 10000	
O=C(O)CN1C[C@H](NC(=O)[C@@H]2C[C@H](F)CN2)C[C@@H]1C(=O)NCc1ccc(C#CC#CC2CC2)cc1 [Example 9AN, 2-((2R,4R)-2-((4-(Cyclopropylbuta-1,3-diyn-1-yl)benzyl)carbamoyl)-4-((2S,4S)-4-fluoropyrrolidine-2-carboxamido)pyrrolidin-1-yl)acetic acid]	50 to 100	20 to 100 (≈ 9.61 to 48.1 µg/mL)	> 100	> 100	> 100	< 500	
CC(C)C(=O)N1C[C@H](NC(=O)[C@H]2NCC[C@H]2O)C[C@@H]1C(=O)NCc1ccc(C#Cc2ccc(CN3CCOCC3)cc2)cc1 [Example 9V]	100 to 1000	> 100	> 100	> 100	> 100	2500 to 10000	
CC(C)C(=O)N1C[C@H](NC(=O)[C@H]2NCC[C@H]2O)C[C@@H]1C(=O)NCc1ccc(C#CC#CC2CC2)cc1 [Example 9W, (2R,4R)—N-(4-(cyclopropylbuta-1,3-diyn-1-yl)benzyl)-4-((2S,3R)-3-hydroxypyrrolidine-2-carboxamido)-1-isobutyrylpyrrolidine-2-carboxamide]	100 to 1000	> 100	> 100	> 100	> 100	> 10000	
CNCCC(=O)N1C[C@H](NC(=O)[C@@H]2C[C@H](F)CN2)C[C@@H]1C(=O)NCc1ccc(C#CC#CC2CC2)cc1 [Example 9Q]	50 to 100	> 100	> 100	> 100	> 100	2500 to 10000	
CS(=O)(=O)N1C[C@H](NC(=O)[C@@H]2C[C@H](F)CN2)C[C@@H]1C(=O)NCc1ccc(C#Cc2ccc(CN3CCOCC3)cc2)cc1 [Example 9AI, (2R,4R)-4-((2S,4S)-4-Fluoropyrrolidine-2-carboxamido)-1-(methylsulfonyl)-N-(4-((4-(morpholinomethyl)phenyl)ethynyl)benzyl)pyrrolidine-2-carboxamide]	< 50	< 20	20 to 100 (≈ 12.2 to 61.2 µg/mL)	> 100		< 500	> 100
CC(C)C(=O)N1C[C@H](NC(=O)[C@@H]2CCCN2)C[C@@H]1C(=O)NCc1ccc(C#Cc2ccccc2)cc1 [Example 9J]	100 to 1000	> 100	20 to 100 (≈ 9.73 to 48.7 µg/mL)	> 100	> 100	2500 to 10000	
O=C(NC[C@H]1C[C@@H](NC(=O)[C@@H]2C[C@H](F)CN2)CN1C(=O)C1CC1)c1ccc(C#Cc2ccccc2)cc1 [Example 9AX]	< 50	< 20	< 20	< 20		< 500	> 100
NCCCC(=O)N1C[C@H](NC(=O)[C@@H]2C[C@H](F)CN2)C[C@@H]1C(=O)NCc1ccc(C#CC#CC2CC2)cc1 [Example 9O]	50 to 100	> 100	> 100	> 100	> 100	2500 to 10000	
CS(=O)(=O)CCN1C[C@H](NC(=O)[C@@H]2C[C@H](F)CN2)C[C@@H]1C(=O)NCc1ccc(C#CC#CC2CC2)cc1 [Example 9AP]	100 to 1000	> 100	> 100	> 100	> 100	500 to 2500	
CC(C)C(=O)N1C[C@H](NC(=O)[C@@H]2CC(F)(F)CN2)C[C@@H]1C(=O)NCc1ccc(C#Cc2ccccc2)cc1 [Example 9C]	100 to 1000	> 100	20 to 100 (≈ 10.5 to 52.3 µg/mL)	> 100	> 100	500 to 2500	
